Target: T1, Tlp1 (Cj1506c), Tlp1-LBD (Campylobacter jejuni, UniProt Q0P8B2)
T1 construct: Tlp1-LBD (residues 31 to 326), dCache domain
Experiment: ITC with purified Tlp1-LBD, pH […]°C
Assay type: binding

T1 sequence (Q0P8B2 entry or part of it): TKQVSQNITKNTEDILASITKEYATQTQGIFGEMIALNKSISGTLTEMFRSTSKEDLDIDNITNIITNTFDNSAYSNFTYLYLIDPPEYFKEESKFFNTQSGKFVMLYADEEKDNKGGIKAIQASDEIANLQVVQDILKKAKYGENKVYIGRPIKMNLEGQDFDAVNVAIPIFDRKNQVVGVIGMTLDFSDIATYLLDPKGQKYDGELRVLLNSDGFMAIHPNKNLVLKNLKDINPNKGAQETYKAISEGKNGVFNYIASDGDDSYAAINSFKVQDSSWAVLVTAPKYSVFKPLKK

Molecule `O=CO` [formate] has a Kd of 245 ± 74 µM.

Source: paper PMC10294657, “The dCache Domain of the Chemoreceptor Tlp1 in Campylobacter jejuni Binds and Triggers Chemotaxis toward Formate” (mBio, 2023)
